{"source": "patent US8323656B2", "about": "“Antigen determinant of rheumatoid arthritis-specific autoantibody and use thereof” (priority 2007, dated 2012)", "key": {"[1]": {"test_system": "RA-specific antibodies (4 anti-CCP2-positive sera)", "test": "Indirect (inhibition) ELISA: cross-reactivity of analytes with RA-specific antibodies, immobilized CCP2 as capture antigen", "assay_type": "binding, human", "parameters": "Cross-reactivity of antibodies with the named analyte: concentration or dose not given beside the values", "text": "A complete set of 21 amino acids and their derivatives were used as analytes to determine if any analyte inhibited the action of the detector antibody in binding to the capture antigen. Determination was made by observation at the single AA level through a series of moving windows of different derivatization. Following this procedure ensures that no antigenic elements of the epitope are missed as long as the possible AA derivatives are available. The analysis began in the fluid phase, wherein initially, the detector antibody was incubated with each of the analytes. After overnight incubation at 4° C., 100 μl of analyte preadsorbed detector antibody per well were added into 96-well microplate which immobilized CCP2 on the surface, and was incubated for 1 hour at room temperature with shaking. […] The reaction was stopped by adding 100 μl of 0.5 M H2SO4 per well and the results were estimated at A450 nm.\nThe concept of indirect ELISA was based upon an inhibition test between an unknown amount of analyte and a known amount of immobilized antigen for a limited number of detector antibody binding-sites. If the contents of detector antibody and immobilized antigen are kept constant, the distribution of detector antibody between immobilized antigen bound detector antibody and analyte bound detector antibody is dependent upon the amount of sample analyte. The mass of immobilized antigen bound detector antibody is inversely proportional to the amount of analyte bound detector antibody.\n(§1) As described in FIG. 1, Amino Acid Profiles for the Antigenic Determinant, ELISA was carried out with sera from Euro-diagnostica (serum 1) and from three patients (serum 2, 3, and 4) with RA to CCP2 positive at various concentrations of different amino acids. […] The horizontal line at 100% represents the control percent binding of the CCP2 to the antibody.\nas §1, with “2, Acetylamino” for “1, Amino”, “acetylamino” for “amino”\nas §1, with “3, Alkylamino” for “1, Amino”, “alkylamino” for “amino”\nas §1, with “4, Acetylamino” for “1, Amino”, “Acid Methyl Ester” for “Acid”, “acetylamino acid methyl esters.” for “amino acids.”"}, "[2]": {"test_system": "RA-specific antibodies (4 anti-CCP2-positive sera)", "test": "Indirect (inhibition) ELISA: cross-reactivity of analytes with RA-specific antibodies, immobilized CCP2 as capture antigen", "assay_type": "binding, human", "conditions": "unpublished epitope mapping studies; result in words"}}, "data": [{"smiles": "NC(=O)NCCC[C@H](N)C(=O)O", "note": "[Citrulline]", "values": [{"measurement": "Inhibition of antibody binding to the immobilized CCP2", "setting": "[1]; FIG. 1 and 2, analyte at 50 mM, 4 sera, result in words", "result": "limited capability to inhibit"}, {"measurement": "Cross-reactivity (%) of RA-specific antibody, modified α-amino acid: alkylation + acetylation", "setting": "[1]; acetylated amino acid methyl ester of the amino acid named, 0 = less than 1%", "result": 100, "unit": "%"}, {"measurement": "Cross-reactivity (%) of RA-specific antibody, modified α-amino acid: acetylation", "setting": "[1]; acetylated derivative of the amino acid named, 0 = less than 1%", "result": 74, "unit": "%"}, {"measurement": "Cross-reactivity (%) of RA-specific antibody, modified α-amino acid: alkylation", "setting": "[1]; butyl esterified (Be) derivative", "result": "^Be124%"}, {"measurement": "Cross-reactivity (%) of RA-specific antibody, modified α-amino acid: alkylation", "setting": "[1]; ethyl esterified (Ee) derivative", "result": "^Ee72%"}, {"measurement": "Cross-reactivity (%) of RA-specific antibody, modified α-amino acid: alkylation", "setting": "[1]; methyl esterified (Me) derivative of the amino acid named, 0 = less than 1%", "result": "^Me81%"}, {"measurement": "Cross-reactivity (%) of RA-specific antibody, modified α-amino acid: alkylation", "setting": "[1]; propyl esterified (Pe) derivative", "result": "^Pe115%"}, {"measurement": "Cross-reactivity of antibodies with the named analyte", "setting": "[1]; the analyte itself is named", "result": "zero"}, {"measurement": "Cross-reactivity (%) of RA-specific antibody, α-amino acid", "setting": "[1]; unmodified α-amino acid, 0 = cross-reactivity less than 1%", "result": 0, "unit": "%"}, {"measurement": "Binding of RA-specific antibodies", "setting": "[2]", "result": "does not bind"}]}]}
